Source: PMC4493534 (Theranostics, 2015)

Columns and labels:
TSPO [1] = assay: In vitro autoradiography of postmortem human brain; assay type: binding; conditions: postmortem human temporal cortex sections, 0.5 nM radioligand
TSPO [2] = molecular target: TSPO (Rattus norvegicus, UniProt P16257); conditions: ischemic rat brain, previously published data; cited from earlier work
Sequence of TSPO (Rattus norvegicus, UniProt P16257) (P16257 whole entry): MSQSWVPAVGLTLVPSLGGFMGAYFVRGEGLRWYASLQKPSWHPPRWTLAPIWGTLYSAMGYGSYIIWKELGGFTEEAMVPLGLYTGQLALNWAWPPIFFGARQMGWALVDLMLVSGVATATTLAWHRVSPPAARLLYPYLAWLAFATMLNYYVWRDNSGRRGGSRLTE

Row | Structure (SMILES) | binding ratio for HAB-1 to that of LAB-1, RB(H/L) (also printed RB(L/H)) (TSPO [1]) | apparent BPND (SRTM) (TSPO [2])
1 | COc1ccc(O[11CH3])c(CN(C(C)=O)c2cc(F)ccc2Oc2ccccc2)c1 [[^11C]DAA1106] | ~1.19 | –
2 | CCN(Cc1ccccc1)C(=O)Cn1c(=O)n(C)c2cnc(-c3ccccc3)nc21 [[^11C]AC-5216] | ~4.60 | –
3 | CC[C@@H](C)N([11CH3])C(=O)c1cc2ccccc2c(-c2ccccc2Cl)n1 [(R)[^11C]PK11195] | – | 1.59 ± 0.33
